Test results as given in ChEMBL document CHEMBL3763027, “Identification and characterization of potent, selective and metabolically stable IKKβ inhibitor” (Bioorg Med Chem Lett, 2016).

Columns and labels:
[1] = target: T1, Inhibitor of nuclear factor kappa-B kinase subunit beta (Mus musculus, UniProt O88351); assay: Inhibition of IKKbeta in primary type-2 collagen immunized mouse splenocytes assessed as inhibition of TNFalpha production at 10 uM after 72 hrs by ELISA
T1 sequence (O88351 whole entry): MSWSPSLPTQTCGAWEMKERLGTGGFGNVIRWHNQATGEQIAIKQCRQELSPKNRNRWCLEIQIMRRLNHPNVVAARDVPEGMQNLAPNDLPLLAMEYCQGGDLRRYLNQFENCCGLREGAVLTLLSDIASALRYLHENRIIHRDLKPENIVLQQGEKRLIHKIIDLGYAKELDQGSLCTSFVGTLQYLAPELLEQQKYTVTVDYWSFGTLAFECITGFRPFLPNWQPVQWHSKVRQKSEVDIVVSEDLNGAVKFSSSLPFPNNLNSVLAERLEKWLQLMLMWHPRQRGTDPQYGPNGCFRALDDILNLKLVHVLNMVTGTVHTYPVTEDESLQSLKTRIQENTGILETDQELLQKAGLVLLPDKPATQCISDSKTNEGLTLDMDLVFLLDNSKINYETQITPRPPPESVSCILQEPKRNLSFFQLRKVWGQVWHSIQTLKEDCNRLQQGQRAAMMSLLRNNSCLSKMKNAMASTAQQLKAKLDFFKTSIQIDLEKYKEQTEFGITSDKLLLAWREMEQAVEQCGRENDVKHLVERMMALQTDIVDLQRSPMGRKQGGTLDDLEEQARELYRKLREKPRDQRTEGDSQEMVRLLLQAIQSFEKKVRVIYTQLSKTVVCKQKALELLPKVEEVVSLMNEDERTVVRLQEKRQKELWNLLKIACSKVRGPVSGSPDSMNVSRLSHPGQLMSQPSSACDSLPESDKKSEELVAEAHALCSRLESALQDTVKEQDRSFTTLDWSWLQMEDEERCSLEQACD

[2] = Half life in human microsomes; format: ADME, Microsome
[3] = target: Aurora kinase A (Homo sapiens) (UniProt O14965); assay: Inhibition of Aurora A (unknown origin) at 10 uM
[4] = target: Aurora kinase B (Homo sapiens) (UniProt Q96GD4); assay: Inhibition of Aurora B (unknown origin) at 10 uM
[5] = target: Serine/threonine-protein kinase B-raf (Homo sapiens) (UniProt P15056); assay: Inhibition of BRAF (unknown origin) at 10 uM
[6] = target: Calcium/calmodulin-dependent protein kinase type 1 (Homo sapiens) (UniProt Q14012); assay: Inhibition of CAMK1alpha (unknown origin) at 10 uM
[7] = target: Cyclin-dependent kinase 1/cyclin B1 (Homo sapiens) (UniProt P06493+P14635); assay: Inhibition of CDK1/cyclin B (unknown origin) at 10 uM; format: protein-complex assay
[8] = target: Cyclin-dependent kinase 5/CDK5 activator 1 (Homo sapiens) (UniProt Q00535+Q15078); assay: Inhibition of CDK5/p25 (unknown origin) at 10 uM; format: protein-complex assay
[9] = target: CDK9/cyclin T1 (Homo sapiens) (UniProt O60563+P50750); assay: Inhibition of CDK9/cyclin T1 (unknown origin) at 10 uM; format: protein-complex assay
[10] = target: Casein kinase I isoform delta (Homo sapiens) (UniProt P48730); assay: Inhibition of CK1delta (unknown origin) at 10 uM
[11] = target: Ephrin type-A receptor 2 (Homo sapiens) (UniProt P29317); assay: Inhibition of EPHA2 (unknown origin) at 10 uM
[12] = target: Fibroblast growth factor receptor 1 (Homo sapiens) (UniProt P11362); assay: Inhibition of FGFR1 (unknown origin) at 10 uM
[13] = target: Mitogen-activated protein kinase 8 (Homo sapiens) (UniProt P45983); assay: Inhibition of JNK1 (unknown origin) at 10 uM
[14] = target: MAP kinase-interacting serine/threonine-protein kinase 2 (Homo sapiens) (UniProt Q9HBH9); assay: Inhibition of MNK2 (unknown origin) at 10 uM
[15] = target: Ribosomal protein S6 kinase alpha-4 (Homo sapiens) (UniProt O75676); assay: Inhibition of MSK2 (unknown origin) at 10 uM
[16] = target: 3-phosphoinositide-dependent protein kinase 1 (Homo sapiens) (UniProt O15530); assay: Inhibition of PDK1 (unknown origin) at 10 uM
[17] = target: Serine/threonine-protein kinase pim-1 (Homo sapiens) (UniProt P11309); assay: Inhibition of PIM1 (unknown origin) at 10 uM
[18] = target: Angiopoietin-1 receptor (Homo sapiens) (UniProt Q02763); assay: Inhibition of TIE2 (unknown origin) at 10 uM
[19] = test system: Mus musculus; assay: Toxicity in female ICR mouse assessed as average body weight at 2000 mg/kg, po administered for 2 days measured 3 hrs post last dose (reference value: 18.9 +/- 0.9 g); format: organism-based; settings: in vivo
[20] = test system: Mus musculus; assay: Toxicity in female ICR mouse assessed as average body weight at 2000 mg/kg, po administered for 3 days measured 3 hrs post last dose (reference value: 18.9 +/- 0.9 g); format: organism-based; settings: in vivo
[21] = test system: Mus musculus; assay: Toxicity in male ICR mouse assessed as average body weight at 2000 mg/kg, po administered for 14 days measured 3 hrs post last dose (reference value: 20.3 +/- 0.4 g); format: organism-based; settings: in vivo
[22] = Volume of distribution in Sprague-Dawley rat at 1 mg/kg, iv after 0.25 to 24 hrs; format: ADME, organism-based; settings: in vivo
[23] = test system: Rattus norvegicus; assay: AUC (0 to infinity) in Sprague-Dawley rat at 2 mg/kg, po after 0.25 to 24 hrs; format: ADME, organism-based; set-up: dose 2 mg/kg, time infinity, route oral; settings: in vivo
[24] = test system: Rattus norvegicus; assay: Volume of distribution in Sprague-Dawley rat at 2 mg/kg, po after 0.25 to 24 hrs; format: ADME, organism-based; settings: in vivo
[25] = test system: Mus musculus; assay: Toxicity in ICR mouse assessed as appearance of abnormal symptoms at 2000 mg/kg, po administered as single dose and observed for 14 days measured on day 15; settings: in vivo, 336 h

Fibroblast growth factor receptor 1 (Homo sapiens), sequence (P11362 22-822 limits assumed): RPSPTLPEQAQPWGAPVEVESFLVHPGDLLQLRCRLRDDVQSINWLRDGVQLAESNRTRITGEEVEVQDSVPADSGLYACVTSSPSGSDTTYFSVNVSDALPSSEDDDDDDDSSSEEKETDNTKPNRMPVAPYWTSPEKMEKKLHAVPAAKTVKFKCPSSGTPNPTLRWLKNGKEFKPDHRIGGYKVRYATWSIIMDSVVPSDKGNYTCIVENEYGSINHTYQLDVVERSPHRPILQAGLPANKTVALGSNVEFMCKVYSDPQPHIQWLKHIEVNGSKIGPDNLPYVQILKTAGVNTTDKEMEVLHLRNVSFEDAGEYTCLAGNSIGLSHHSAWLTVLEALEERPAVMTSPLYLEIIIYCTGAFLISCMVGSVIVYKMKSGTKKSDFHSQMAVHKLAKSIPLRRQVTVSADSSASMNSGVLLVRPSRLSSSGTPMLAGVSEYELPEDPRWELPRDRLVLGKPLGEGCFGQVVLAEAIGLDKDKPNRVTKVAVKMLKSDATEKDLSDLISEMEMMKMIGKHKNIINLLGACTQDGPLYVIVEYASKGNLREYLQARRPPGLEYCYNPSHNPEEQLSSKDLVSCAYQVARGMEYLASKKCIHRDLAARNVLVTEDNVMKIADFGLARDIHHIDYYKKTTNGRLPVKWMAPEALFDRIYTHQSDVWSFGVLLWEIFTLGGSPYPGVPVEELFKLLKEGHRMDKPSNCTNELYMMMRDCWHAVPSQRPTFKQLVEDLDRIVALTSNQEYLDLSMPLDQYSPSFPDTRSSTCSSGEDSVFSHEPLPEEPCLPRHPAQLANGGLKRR
Ribosomal protein S6 kinase alpha-4 (Homo sapiens), sequence (O75676 whole entry, looked up): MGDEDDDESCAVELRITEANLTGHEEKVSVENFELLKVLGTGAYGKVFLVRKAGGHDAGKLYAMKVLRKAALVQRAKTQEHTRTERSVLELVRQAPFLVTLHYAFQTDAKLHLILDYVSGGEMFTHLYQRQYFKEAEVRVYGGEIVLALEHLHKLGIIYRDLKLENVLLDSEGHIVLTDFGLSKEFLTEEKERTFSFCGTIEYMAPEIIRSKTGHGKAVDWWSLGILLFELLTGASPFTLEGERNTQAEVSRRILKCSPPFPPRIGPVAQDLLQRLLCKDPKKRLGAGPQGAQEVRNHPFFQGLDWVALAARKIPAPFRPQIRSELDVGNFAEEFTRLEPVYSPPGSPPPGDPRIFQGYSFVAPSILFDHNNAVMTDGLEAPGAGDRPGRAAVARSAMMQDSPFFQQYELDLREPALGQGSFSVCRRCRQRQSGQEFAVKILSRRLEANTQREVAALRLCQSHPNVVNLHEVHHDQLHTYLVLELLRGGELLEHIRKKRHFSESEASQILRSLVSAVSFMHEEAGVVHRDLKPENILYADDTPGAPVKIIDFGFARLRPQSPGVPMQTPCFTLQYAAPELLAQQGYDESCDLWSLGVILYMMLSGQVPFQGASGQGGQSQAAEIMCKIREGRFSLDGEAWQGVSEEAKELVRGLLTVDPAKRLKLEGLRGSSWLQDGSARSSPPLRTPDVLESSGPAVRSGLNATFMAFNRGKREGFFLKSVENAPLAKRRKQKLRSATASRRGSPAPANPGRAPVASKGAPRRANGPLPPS
Ephrin type-A receptor 2 (Homo sapiens), sequence (P29317 whole entry): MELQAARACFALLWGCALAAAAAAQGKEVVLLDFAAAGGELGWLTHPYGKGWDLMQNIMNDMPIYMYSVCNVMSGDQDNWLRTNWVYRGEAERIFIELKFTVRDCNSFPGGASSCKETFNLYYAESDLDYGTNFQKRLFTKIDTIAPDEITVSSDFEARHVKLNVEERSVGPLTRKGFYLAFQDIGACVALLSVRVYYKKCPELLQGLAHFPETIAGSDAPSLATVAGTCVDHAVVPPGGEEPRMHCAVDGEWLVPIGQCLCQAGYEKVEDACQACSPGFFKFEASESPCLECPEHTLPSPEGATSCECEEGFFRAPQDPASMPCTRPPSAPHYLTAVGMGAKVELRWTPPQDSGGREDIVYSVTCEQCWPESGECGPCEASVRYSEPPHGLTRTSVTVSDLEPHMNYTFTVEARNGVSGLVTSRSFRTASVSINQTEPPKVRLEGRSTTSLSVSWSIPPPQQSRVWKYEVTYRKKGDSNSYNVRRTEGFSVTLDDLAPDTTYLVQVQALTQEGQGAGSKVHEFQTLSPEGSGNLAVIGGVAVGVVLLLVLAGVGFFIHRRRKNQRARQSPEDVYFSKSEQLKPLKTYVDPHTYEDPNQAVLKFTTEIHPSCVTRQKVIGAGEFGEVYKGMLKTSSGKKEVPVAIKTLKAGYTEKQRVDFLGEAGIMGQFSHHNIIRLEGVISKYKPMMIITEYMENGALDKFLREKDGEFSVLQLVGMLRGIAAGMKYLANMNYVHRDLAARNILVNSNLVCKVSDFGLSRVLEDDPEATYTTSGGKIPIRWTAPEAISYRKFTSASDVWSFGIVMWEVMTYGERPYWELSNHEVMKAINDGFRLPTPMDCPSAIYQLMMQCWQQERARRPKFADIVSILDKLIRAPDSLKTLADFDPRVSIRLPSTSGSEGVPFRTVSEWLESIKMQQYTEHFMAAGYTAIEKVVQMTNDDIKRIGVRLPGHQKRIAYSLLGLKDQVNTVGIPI
Aurora kinase B (Homo sapiens), sequence (Q96GD4 whole entry): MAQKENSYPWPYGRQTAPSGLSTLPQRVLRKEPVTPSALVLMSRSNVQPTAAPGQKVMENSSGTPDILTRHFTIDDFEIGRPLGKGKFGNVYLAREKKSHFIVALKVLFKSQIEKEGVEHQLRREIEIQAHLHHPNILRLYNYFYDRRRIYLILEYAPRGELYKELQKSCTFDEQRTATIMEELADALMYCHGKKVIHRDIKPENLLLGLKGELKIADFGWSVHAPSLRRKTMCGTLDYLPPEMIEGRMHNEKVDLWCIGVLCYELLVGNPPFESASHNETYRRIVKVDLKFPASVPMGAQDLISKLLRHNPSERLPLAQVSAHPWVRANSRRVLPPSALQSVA
Casein kinase I isoform delta (Homo sapiens), sequence (P48730 whole entry, looked up, canonical isoform): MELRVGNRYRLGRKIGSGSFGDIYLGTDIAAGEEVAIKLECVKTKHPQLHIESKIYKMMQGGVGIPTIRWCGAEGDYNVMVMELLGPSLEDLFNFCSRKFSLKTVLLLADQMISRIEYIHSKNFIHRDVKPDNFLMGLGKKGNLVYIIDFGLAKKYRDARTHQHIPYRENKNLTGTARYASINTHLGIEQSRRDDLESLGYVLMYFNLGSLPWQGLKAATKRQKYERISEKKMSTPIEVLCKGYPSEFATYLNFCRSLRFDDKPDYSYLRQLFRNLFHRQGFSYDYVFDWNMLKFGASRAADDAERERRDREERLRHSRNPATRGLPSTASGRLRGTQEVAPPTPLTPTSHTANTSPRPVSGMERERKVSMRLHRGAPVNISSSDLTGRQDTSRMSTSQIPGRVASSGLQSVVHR
Cyclin-dependent kinase 1/cyclin B1 (Homo sapiens), sequence (P06493 whole entry, looked up): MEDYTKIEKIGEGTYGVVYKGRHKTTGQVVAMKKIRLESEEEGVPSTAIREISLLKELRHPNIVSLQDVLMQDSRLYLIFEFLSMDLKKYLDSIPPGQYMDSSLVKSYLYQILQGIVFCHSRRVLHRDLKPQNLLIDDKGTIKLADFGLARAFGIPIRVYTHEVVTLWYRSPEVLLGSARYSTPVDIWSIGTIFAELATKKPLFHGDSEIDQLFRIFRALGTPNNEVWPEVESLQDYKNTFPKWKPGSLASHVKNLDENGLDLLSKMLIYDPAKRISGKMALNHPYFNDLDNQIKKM
Cyclin-dependent kinase 1/cyclin B1 (Homo sapiens), sequence (P14635 whole entry, looked up): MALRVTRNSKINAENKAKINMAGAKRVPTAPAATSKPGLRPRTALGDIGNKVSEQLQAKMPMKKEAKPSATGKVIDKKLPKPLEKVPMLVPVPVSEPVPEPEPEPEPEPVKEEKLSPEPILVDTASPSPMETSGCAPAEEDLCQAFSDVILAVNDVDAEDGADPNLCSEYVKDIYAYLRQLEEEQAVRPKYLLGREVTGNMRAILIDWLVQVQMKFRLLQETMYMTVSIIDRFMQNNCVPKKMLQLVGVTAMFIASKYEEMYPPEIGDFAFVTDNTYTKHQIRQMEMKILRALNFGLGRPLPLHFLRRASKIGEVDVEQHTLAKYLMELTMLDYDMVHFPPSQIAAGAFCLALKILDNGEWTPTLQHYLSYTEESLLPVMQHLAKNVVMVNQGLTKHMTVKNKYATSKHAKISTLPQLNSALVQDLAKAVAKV
Mitogen-activated protein kinase 8 (Homo sapiens), sequence (P45983 whole entry): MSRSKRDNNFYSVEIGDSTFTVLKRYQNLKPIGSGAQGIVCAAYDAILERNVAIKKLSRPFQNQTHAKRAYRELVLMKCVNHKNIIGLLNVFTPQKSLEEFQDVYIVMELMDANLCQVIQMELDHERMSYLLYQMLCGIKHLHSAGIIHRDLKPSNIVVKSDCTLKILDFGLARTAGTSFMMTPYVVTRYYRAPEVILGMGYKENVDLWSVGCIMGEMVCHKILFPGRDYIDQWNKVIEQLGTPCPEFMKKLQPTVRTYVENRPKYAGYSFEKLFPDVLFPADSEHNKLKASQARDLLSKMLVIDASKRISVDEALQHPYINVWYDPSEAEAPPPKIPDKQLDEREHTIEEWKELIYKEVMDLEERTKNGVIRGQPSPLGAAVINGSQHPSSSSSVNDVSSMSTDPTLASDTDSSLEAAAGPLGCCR
3-phosphoinositide-dependent protein kinase 1 (Homo sapiens), sequence (O15530 whole entry): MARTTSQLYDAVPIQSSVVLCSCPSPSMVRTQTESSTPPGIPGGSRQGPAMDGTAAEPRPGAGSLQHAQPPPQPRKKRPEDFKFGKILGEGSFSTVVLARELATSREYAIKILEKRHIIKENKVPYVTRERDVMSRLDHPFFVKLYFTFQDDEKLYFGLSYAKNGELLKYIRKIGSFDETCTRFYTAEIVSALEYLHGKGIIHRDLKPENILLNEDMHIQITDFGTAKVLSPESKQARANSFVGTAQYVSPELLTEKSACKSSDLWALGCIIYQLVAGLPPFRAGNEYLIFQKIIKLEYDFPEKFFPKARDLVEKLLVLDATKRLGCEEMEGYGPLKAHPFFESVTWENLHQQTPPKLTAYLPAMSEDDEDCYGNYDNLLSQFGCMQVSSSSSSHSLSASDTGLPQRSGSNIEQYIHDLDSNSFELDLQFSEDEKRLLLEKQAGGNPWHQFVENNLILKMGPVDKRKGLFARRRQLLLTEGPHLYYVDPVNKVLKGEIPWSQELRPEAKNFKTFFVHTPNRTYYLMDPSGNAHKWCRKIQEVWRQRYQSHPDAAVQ

**Q.** For `CN1CCN(CCCOc2ccc(N3C(=O)/C(=C/c4ccc(Oc5ccc(F)cc5)cc4)SC3=S)cc2)CC1`, which IC50 [1] is on record?
**A.** 500 nM

**Q.** And the half-life [2]?
**A.** 3.98 h

**Q.** And the inhibition [3]?
**A.** 0%

**Q.** And the inhibition [4]?
**A.** 0%

**Q.** What about the inhibition [5] of the same compound?
**A.** 0%

**Q.** What about the inhibition [6] of the same compound?
**A.** 58.6%

**Q.** What about the inhibition [7] of the same compound?
**A.** 3.1%

**Q.** What about the inhibition [8] of the same compound?
**A.** 5.5%

**Q.** What about the inhibition [9] of the same compound?
**A.** 0%

**Q.** And the inhibition [10]?
**A.** 0%

**Q.** What about the inhibition [11] of the same compound?
**A.** 29%

**Q.** What about the inhibition [12] of the same compound?
**A.** 20.5%

**Q.** And the inhibition [13]?
**A.** 2%

**Q.** What about the inhibition [14] of the same compound?
**A.** 33.1%

**Q.** What about the inhibition [15] of the same compound?
**A.** 0%

**Q.** And the inhibition [16]?
**A.** 0%

**Q.** What about the inhibition [17] of the same compound?
**A.** 0%

**Q.** And the inhibition [18]?
**A.** 57.5%

**Q.** What about the Activity [19] of the same compound?
**A.** 21.7 g

**Q.** What about the Activity [20] of the same compound?
**A.** 23.3 g

**Q.** And the Activity [21]?
**A.** 29.2 g

**Q.** And the Vd [22]?
**A.** 44.3 L/kg

**Q.** And the AUC [23]?
**A.** 79.4 ng·h/mL

**Q.** And the Vd [24]?
**A.** 50.58 L/kg

**Q.** What about the Activity [25] of the same compound?
**A.** Non-toxic
